Where two headings read alike, the source gives them in different places. Blank lines part the entries; values can stand above or below the compound they belong to.
What was measured:
[1] = test system: phosphorylation of pRb at the Ser780 site in JeKo-1 mantle cell lymphoma cells; experiment: CDK4 cellular assay: ELISA of pRb phosphorylation at Ser780 in JeKo-1 cells; assay type: cell-based
CDK1/cyclin B = CDK1/cyclin B (Homo sapiens (Human), UniProt P06493); experiment: CDK1/cyclin B enzymatic activity assay (IMAP-FP); assay type: biochemical; conditions: 100 nM Tamra Histone-H1 peptide, 20 μM ATP, 120 min at room temperature, read-out: Biochemical CDK1 enzyme IC50
Chain of CDK1/cyclin B (P06493 whole entry, species assumed): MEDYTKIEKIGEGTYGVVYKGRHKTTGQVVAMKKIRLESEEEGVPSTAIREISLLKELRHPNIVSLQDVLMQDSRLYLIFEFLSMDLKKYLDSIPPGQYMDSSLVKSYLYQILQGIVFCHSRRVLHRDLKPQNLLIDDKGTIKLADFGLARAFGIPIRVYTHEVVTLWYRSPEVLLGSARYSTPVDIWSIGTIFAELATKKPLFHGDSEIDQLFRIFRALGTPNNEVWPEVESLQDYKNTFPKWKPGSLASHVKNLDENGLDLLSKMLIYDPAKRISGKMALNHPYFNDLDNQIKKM
Chain of CDK1/cyclin B (P14635 whole entry partner, species assumed): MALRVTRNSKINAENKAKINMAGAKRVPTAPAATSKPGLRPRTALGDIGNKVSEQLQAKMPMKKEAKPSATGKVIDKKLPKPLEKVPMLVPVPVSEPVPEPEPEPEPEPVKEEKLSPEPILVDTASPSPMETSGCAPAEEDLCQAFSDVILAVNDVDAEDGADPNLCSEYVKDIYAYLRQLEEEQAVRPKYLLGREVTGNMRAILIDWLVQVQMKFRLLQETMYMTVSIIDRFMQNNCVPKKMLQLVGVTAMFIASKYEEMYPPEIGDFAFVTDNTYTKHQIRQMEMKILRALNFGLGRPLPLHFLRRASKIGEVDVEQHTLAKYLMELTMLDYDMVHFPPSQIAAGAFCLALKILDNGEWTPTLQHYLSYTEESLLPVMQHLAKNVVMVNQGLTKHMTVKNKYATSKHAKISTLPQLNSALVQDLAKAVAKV
From the text: CDK1/Cyclin B Enzymatic Activity Assay
A 384-well microtiter IMAP-FP™ (Molecular Devices Trade Mark Technology) endpoint assay was used for CDK1/cyclin B kinase activity measurements. The same assay was used for IC50 determination of small molecule inhibitors.

CDK4/cyclin D1 = CDK4/cyclin D1 (Homo sapiens (Human), UniProt P11802); experiment: CDK4/cyclin D1 enzymatic activity assay (TR-FRET, phosphorylation of pRb at Ser780); assay type: biochemical; conditions: 0.3 nM CDK4/cyclin D1, 150 nM biotin-pRb (773-924), 3 μM ATP, 60 min at 22° C.; read-out: Biochemical CDK4 enzyme IC50
Chain of CDK4/cyclin D1 (P11802 whole entry): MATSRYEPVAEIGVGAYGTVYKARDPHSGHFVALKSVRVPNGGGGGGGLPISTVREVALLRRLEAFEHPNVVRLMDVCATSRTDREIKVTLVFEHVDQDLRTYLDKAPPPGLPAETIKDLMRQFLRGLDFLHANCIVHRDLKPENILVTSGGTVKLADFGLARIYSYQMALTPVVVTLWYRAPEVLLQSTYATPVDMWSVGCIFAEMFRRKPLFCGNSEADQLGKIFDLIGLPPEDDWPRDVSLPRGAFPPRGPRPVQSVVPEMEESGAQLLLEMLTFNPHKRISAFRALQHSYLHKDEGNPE
Chain of CDK4/cyclin D1 (P24385 whole entry partner): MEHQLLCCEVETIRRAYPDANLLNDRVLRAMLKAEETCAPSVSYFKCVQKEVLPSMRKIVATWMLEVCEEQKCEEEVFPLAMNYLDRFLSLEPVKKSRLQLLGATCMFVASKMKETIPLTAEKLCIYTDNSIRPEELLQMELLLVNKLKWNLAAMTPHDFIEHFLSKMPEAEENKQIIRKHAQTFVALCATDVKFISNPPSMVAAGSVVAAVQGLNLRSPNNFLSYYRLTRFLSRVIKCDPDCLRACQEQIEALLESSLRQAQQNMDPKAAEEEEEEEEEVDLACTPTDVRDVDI
Method in brief: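 Phosphorylation at pRb Ser780, detected by TR-FRET, gave IC50s and kinetics. Enzyme: baculovirus/Sf21-expressed human CDK4/cyclin D1. ATP at 3 μM initiated the reaction; EDTA (pH 8.0) stopped it after 60 min at 22° C.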

[2] = Homo sapiens, JeKo-1 cells, p-pRb % inhibition adjusted with total pRb levels, read-out: Normalized cellular ppRb inhibition IC50
[3] = Homo sapiens, JeKo-1 cells, p-pRb Ser780 ELISA, non-normalized, read-out: Cellular ppRb inhibition IC50
[4] = Homo sapiens, JeKo-1, JeKo-1 cells, p-pRb % inhibition adjusted with total pRb levels, read-out: Normalized cellular ppRb inhibition IC50
[5] = Homo sapiens, JeKo-1, JeKo-1 cells, p-pRb Ser780 ELISA, non-normalized, read-out: Cellular ppRb inhibition IC50

IC50 (CDK1/cyclin B; […] CDK1/cyclin B): > 15000 nM | IC50 (CDK4/cyclin D1): 15 nM
Structure (SMILES): CN(C)C(=O)c1cc2cnc(Nc3ccc(C(=O)N4C[C@@H]5[C@@H](N)[C@@H]5C4)cn3)nc2n1C1CCCC1 [Example 42, 2-[5-((1S,5R,6S)-6-Amino-3-aza-bicyclo[3.1.0]hexane-3-carbonyl)-pyridin-2-ylamino]-7-cyclopentyl-7H-pyrrolo[2,3-d]pyrimidine-6-carboxylic acid dimethylamide]
IC50 [1, 2]: 241 nM | IC50 [1, 3]: 86 nM

IC50 (CDK1/cyclin B; […] CDK1/cyclin B): > 15000 nM | IC50 (CDK4/cyclin D1): 176 to 198 nM
Structure (SMILES): CN(C)C(=O)c1cc2cnc(Nc3ccc(C(=O)N4[C@@H]5CC[C@H]4C[C@H](O)C5)cn3)nc2n1C1CCCC1 [Example 43, 7-Cyclopentyl-2-[5-((1S,3S,5R)-3-hydroxy-8-aza-bicyclo[3.2.1]octane-8-carbonyl)-pyridin-2-ylamino]-7H-pyrrolo[2,3-d]pyrimidine-6-carboxylic acid dimethylamide]
IC50 ([1]; JeKo-1 cells, p-pRb % inhibition adjusted with total pRb levels, read-out: Normalized cellular ppRb inhibition IC50): 469 to 1280 nM | IC50 ([1]; JeKo-1 cells, p-pRb Ser780 ELISA, non-normalized, read-out: Cellular ppRb inhibition IC50): 461 to 745 nM

Structure (SMILES): CN(C)C(=O)c1cc2cnc(Nc3ccc(C(=O)N4[C@@H]5CC[C@H]4C[C@@H](O)C5)cn3)nc2n1C1CCCC1 [Example 44, 7-Cyclopentyl-2-[5-((1S,3R,5R)-3-hydroxy-8-aza-bicyclo[3.2.1]octane-8-carbonyl)-pyridin-2-ylamino]-7H-pyrrolo[2,3-d]pyrimidine-6-carboxylic acid dimethylamide]
IC50 ([1]; Homo sapiens, JeKo-1, read-out: Cellular ppRb inhibition IC50): 720 to 1490 nM | IC50 ([1]; Homo sapiens, JeKo-1, read-out: Normalized cellular ppRb inhibition IC50): 778 nM | IC50 (CDK1/cyclin B; […] CDK1/cyclin B): > 15000 nM | IC50 (CDK4/cyclin D1): 177 to 351 nM

Structure (SMILES): CN(C)C(=O)c1cc2cnc(Nc3ccc(C(=O)N4CC5CCC(C4)N5C)cn3)nc2n1C1CCCC1 [Example 45, 7-cyclopentyl-2-[5-(8-methyl-3,8-diaza-bicyclo[3.2.1]octane-3-carbonyl)-pyridin-2-ylamino]-7H-pyrrolo[2,3-d]pyrimidine-6-carboxylic acid dimethylamide]
IC50 [1, 4]: 64 nM | IC50 [1, 5]: 64 nM | IC50 (CDK1/cyclin B; […] CDK1/cyclin B): 12800 nM | IC50 (CDK4/cyclin D1): 14 to 24 nM

IC50 (CDK1/cyclin B; […] CDK1/cyclin B): > 15000 nM | IC50 (CDK4/cyclin D1): 100 nM
Structure (SMILES): CN(C)C(=O)c1cc2cnc(Nc3ccc(C(=O)N4CC5CN(Cc6ccccc6)CC(C4)O5)cn3)nc2n1C1CCCC1 [Example 46, 2-[5-(7-Benzyl-9-oxa-3,7-diaza-bicyclo[3.3.1]nonane-3-carbonyl)-pyridin-2-ylamino]-7-cyclopentyl-7H-pyrrolo[2,3-d]pyrimidine-6-carboxylic acid dimethylamide]
IC50 [1, 4]: 730 nM | IC50 [1, 5]: 724 nM

IC50 (CDK1/cyclin B; […] CDK1/cyclin B): > 15000 nM | IC50 (CDK4/cyclin D1): 30 nM
Structure (SMILES): CN(C)C(=O)c1cc2cnc(Nc3ccc(C(=O)N4CC5CNCC(C4)O5)cn3)nc2n1C1CCCC1 [Example 47, 7-Cyclopentyl-2-[5-(9-oxa-3,7-diaza-bicyclo[3.3.1]nonane-3-carbonyl)-pyridin-2-ylamino]-7H-pyrrolo[2,3-d]pyrimidine-6-carboxylic acid dimethylamide]
IC50 [1, 2]: 352 nM | IC50 [1, 3]: 315 nM

IC50 (CDK1/cyclin B; […] CDK1/cyclin B): > 15000 nM | IC50 (CDK4/cyclin D1): 24 nM
Structure (SMILES): CN(C)C(=O)c1cc2cnc(Nc3ccc(C(=O)N4CCN5CCC4CC5)cn3)nc2n1C1CCCC1 [Example 48, 7-Cyclopentyl-2-[5-(1,4-diaza-bicyclo[3.2.2]nonane-4-carbonyl)-pyridin-2-ylamino]-7H-pyrrolo[2,3-d]pyrimidine-6-carboxylic acid dimethylamide]
IC50 [1, 2]: 229 nM | IC50 [1, 3]: 152 nM

IC50 (CDK1/cyclin B; […] CDK1/cyclin B): > 15000 nM | IC50 (CDK4/cyclin D1): 45 nM
Structure (SMILES): CN(C)C(=O)c1cc2cnc(Nc3ccc(C(=O)N4C[C@H]5C[C@@H]4CN5)cn3)nc2n1C1CCCC1 [Example 49, 7-Cyclopentyl-2-[5-((R,R)-2,5-diaza-bicyclo[2.2.1]heptane-2-carbonyl)-pyridin-2-ylamino]-7H-pyrrolo[2,3-d]pyrimidine-6-carboxylic acid dimethylamide]
IC50 [1, 4]: 52 to 431 nM | IC50 [1, 5]: 44 to 231 nM

Structure (SMILES): Cc1nc(Nc2ncc3cc(C(=O)N(C)C)n(C4CCCC4)c3n2)ccc1C(=O)N1CC2CCC(C1)N2 [Example 50, 7-Cyclopentyl-2-[5-(3,8-diaza-bicyclo[3.2.1]octane-3-carbonyl)-6-methyl-pyridin-2-ylamino]-7H-pyrrolo[2,3-d]pyrimidine-6-carboxylic acid dimethylamide]
IC50 [1, 4]: 90 nM | IC50 [1, 5]: 41 nM | IC50 (CDK1/cyclin B; […] CDK1/cyclin B): > 15000 nM | IC50 (CDK4/cyclin D1): 21 nM

Structure (SMILES): Cc1cc(Nc2ncc3cc(C(=O)N(C)C)n(C4CCCC4)c3n2)ncc1C(=O)N1CC2CCC(C1)N2 [Example 51, 7-Cyclopentyl-2-[5-(3,8-diaza-bicyclo[3.2.1]octane-3-carbonyl)-4-methyl-pyridin-2-ylamino]-7H-pyrrolo[2,3-d]pyrimidine-6-carboxylic acid dimethylamide]
IC50 [1, 2]: 60 nM | IC50 [1, 3]: 28 nM | IC50 (CDK1/cyclin B; 0.25 nM CDK1/cyclin B): > 15000 nM | IC50 (CDK4/cyclin D1): 23 nM

Structure (SMILES): CN(C)C(=O)c1cc2cnc(Nc3ccc(C(=O)N4CC5CCC(C4)N5)cn3)nc2n1-c1ccc(C(C)(C)C)cc1 [Example 53, 7-(4-tert-Butyl-phenyl)-2-[5-(3,8-diaza-bicyclo[3.2.1]octane-3-carbonyl)-pyridin-2-ylamino]-7H-pyrrolo[2,3-d]pyrimidine-6-carboxylic acid dimethylamide]
IC50 [1, 4]: 7 to 27 nM | IC50 [1, 5]: 7 to 14 nM | IC50 (CDK1/cyclin B; […] CDK1/cyclin B): > 15000 nM | IC50 (CDK4/cyclin D1): 3 nM

Structure (SMILES): CN(C)C(=O)c1cc2cnc(Nc3ccc(C(=O)N4CC5CCC(C4)N5)cn3)nc2n1-c1cccc(C(C)(C)C)c1 [Example 54, 7-(3-tert-Butyl-phenyl)-2-[5-(3,8-diaza-bicyclo[3.2.1]octane-3-carbonyl)-pyridin-2-ylamino]-7H-pyrrolo[2,3-d]pyrimidine-6-carboxylic acid dimethylamide]
IC50 [1, 4]: 8 to 47 nM | IC50 [1, 5]: 6 to 33 nM | IC50 (CDK1/cyclin B; […] CDK1/cyclin B): 1990 nM | IC50 (CDK4/cyclin D1): 3 nM

Structure (SMILES): CN(C)C(=O)c1cc2cnc(Nc3ccc(C(=O)N4CC5CCC(C4)N5)cn3)nc2n1C1CCN(C(C)(C)C)CC1 [Example 57, 7-(1-tert-Butyl-piperidin-4-yl)-2-[5-(3,8-diaza-bicyclo[3.2.1]octane-3-carbonyl)-pyridin-2-ylamino]-7H-pyrrolo[2,3-d]pyrimidine-6-carboxylic acid dimethylamide]
IC50 [1, 2]: > 10000 nM | IC50 [1, 3]: > 10000 nM | IC50 (CDK1/cyclin B; […] CDK1/cyclin B): > 15000 nM | IC50 (CDK4/cyclin D1): 1570 nM

Structure (SMILES): CN(C)C(=O)c1cc2cnc(Nc3ccc(C(=O)N4CC5CCC(C4)N5)cn3)nc2n1C(C)(C)C [Example 58, 7-tert-Butyl-2-[5-(3,8-diaza-bicyclo[3.2.1]octane-3-carbonyl)-pyridin-2-ylamino]-7H-pyrrolo[2,3-d]pyrimidine-6-carboxylic acid dimethylamide]
IC50 [1, 2]: 288 to 338 nM | IC50 [1, 3]: 105 to 188 nM | IC50 (CDK1/cyclin B; […] CDK1/cyclin B): > 15000 nM | IC50 (CDK4/cyclin D1): 74 nM

Structure (SMILES): CSCC[C@@H](N)C(=O)N1C2CCC1CN(C(=O)c1ccc(Nc3ncc4cc(C(=O)N(C)C)n(C5CCCC5)c4n3)nc1)C2 [Example 59, 2-{5-[8-((R)-2-Amino-4-methylsulfanyl-butyryl)-3,8-diaza-bicyclo[3.2.1]octane-3-carbonyl]-pyridin-2-ylamino}-7-cyclopentyl-7H-pyrrolo[2,3-d]pyrimidine-6-carboxylic acid dimethylamide]
IC50 [1, 2]: > 10000 nM | IC50 [1, 3]: 2500 nM | IC50 (CDK1/cyclin B; […] CDK1/cyclin B): > 15000 nM | IC50 (CDK4/cyclin D1): 8 nM

Structure (SMILES): CN(C)C(=O)c1cc2cnc(Nc3ccc(C(=O)N4CC5CCC(C4)N5C(=O)CN)cn3)nc2n1C1CCCC1 [Example 60, 2-{5-[8-(2-Amino-acetyl)-3,8-diaza-bicyclo[3.2.1]octane-3-carbonyl]-pyridin-2-ylamino}-7-cyclopentyl-7H-pyrrolo[2,3-d]pyrimidine-6-carboxylic acid dimethylamide]
IC50 [1, 2]: 47 nM | IC50 [1, 3]: 21 nM | IC50 (CDK1/cyclin B; […] CDK1/cyclin B): > 15000 nM | IC50 (CDK4/cyclin D1): 19 nM

Structure (SMILES): CN(C)C(=O)c1cc2cnc(Nc3ccc(C(=O)N4CC5CCC(C4)N5C(=O)C4CCCN4)cn3)nc2n1C1CCCC1 (stereo not drawn) [Example 61, 7-Cyclopentyl-2-{5-[8-(pyrrolidine-2-carbonyl)-3,8-diaza-bicyclo[3.2.1]octane-3-carbonyl]-pyridin-2-ylamino}-7H-pyrrolo[2,3-d]pyrimidine-6-carboxylic acid dimethylamide]
IC50 [1, 2]: 53 nM | IC50 [1, 3]: 21 nM | IC50 (CDK1/cyclin B; […] CDK1/cyclin B): > 15000 nM | IC50 (CDK4/cyclin D1): 20 nM

Structure (SMILES): CC(C)[C@@H](N)C(=O)N1C2CCC1CN(C(=O)c1ccc(Nc3ncc4cc(C(=O)N(C)C)n(C5CCCC5)c4n3)nc1)C2 [Example 62, 2-{5-[8-((R)-2-Amino-3-methyl-butyryl)-3,8-diaza-bicyclo[3.2.1]octane-3-carbonyl]-pyridin-2-ylamino}-7-cyclopentyl-7H-pyrrolo[2,3-d]pyrimidine-6-carboxylic acid dimethylamide]
IC50 [1, 2]: 723 nM | IC50 [1, 3]: 291 nM | IC50 (CDK1/cyclin B; […] CDK1/cyclin B): 39900 nM | IC50 (CDK4/cyclin D1): 10 nM

Reference: patent US8957074B2 (Novartis AG, priority 2010, dated 2015)
